Measurements reported in patent US20170073324A1, “Bifidenone Compositions and Methods of Use” (Sequoia Sciences, Inc., priority 2015, published 2017).
Like-named read-outs stand apart in the source and are kept apart here.

What was measured:
[1] = tested on: NCI-H460 (large cell lung carcinoma) cells; assay: Antiproliferation assay (CELLTITER 96 AQueous, 72 h); assay type: cell-based; settings: Homo sapiens
Description: Bifidenone was tested for its ability to inhibit the proliferation of human cancer cells in vitro as described in the following paragraph. IC50 is defined as the concentration of compound necessary to achieve 50% of the maximum growth inhibition.
For the antiproliferation assay, NCI-H460 (large cell lung carcinoma) or M14 (amelanotic melanoma) cells were grown in RPMI-1640 with 10% FBS supplemented with L-glutamine and HEPES. Cells were seeded into 96-well plates at 5×10^2 to 5×10^4 cells/well and allowed to adhere overnight; the medium was then removed. A stock solution of test compound in DMSO was diluted in medium to generate a series of working solutions. Aliquots (100 μL) of the working solutions were then added to the appropriate test wells to expose cells to the final concentrations of compound in a total volume of 100 μL. Seven different concentrations were tested, with 2-5 wells per concentration. Camptothecin was used as a positive control; wells containing vehicle without compound were used as negative controls. Plates were kept for 72 h in a 37° C., 5% CO2 incubator. After incubation, viable cells were detected with the CELLTITER 96 AQueous Non-Radioactive Cell Proliferation Assay (Promega), and IC50 values were determined using GraphPad Prism 5 software.

[2] = tested on: tubulin; assay: In vitro tubulin polymerization assay; assay type: biochemical; settings: absorbance readout, FIG. 3
Description: To test the hypothesis that bifidenone inhibits cell proliferation by interfering with microtubule dynamics, it was tested in an in vitro tubulin polymerization assay. FIG. 3 illustrates inhibition of tubulin polymerization by bifidenone. Increased absorbance corresponds to increased polymerization.

[3] = tested on: NCI-H460 lung cancer cells; assay: Cell cycle analysis (propidium iodide, flow cytometry); assay type: cell-based, human; settings: NCI-H460, 1, 2, or 3× the IC50 for 6, 18, or 24 h
Description: Antitubulin agents typically interfere with mitosis by disrupting the microtubule dynamics necessary for cell division. […] Cells were then treated with propidium iodide and analyzed using flow cytometry.

[4] = tested on: NCI-H460 cells; assay: Western blot analysis of G2/M markers; assay type: cell-based, human; settings: NCI-H460, 21 h
Description: Nocodazole is known to cause G2/M arrest. Cell lysates were analyzed by western blot using the antibodies indicated on the left. Individual protein bands are designated on the right.

[5] = tested on: caspases 3 and 7 in NCI-H460 lung cancer cells; assay: Caspase 3/7 luminescent apoptosis assay; assay type: cell-based, human; settings: NCI-H460, varying concentrations
Description: FIG. 6 illustrates Caspase assay. Enzyme activity of caspases 3 and 7 was determined using a luminescent assay. NCI-H460 lung cancer cells were treated with varying concentrations of bifidenone or the known antitubulin agents paclitaxel or colchicine. The readout of relative light units is proportional to total caspase 3 and 7 activity.

[6] = tested on: PARP and caspase-7; assay: Western blot of PARP and caspase-7 cleavage; assay type: cell-based; settings: FIG. 7
[7] = tested on: colchicine binding site of tubulin; assay: Ultrafiltration-based tubulin competition assay; settings: free ligand by LC/MS
Excerpt: (§1) In order to determine the binding site of bifidenone on tubulin, a published ultrafiltration-based competition assay was used. In this assay, tubulin is allowed to bind with a known ligand, and then free ligand is separated by ultrafiltration and analyzed by LC/MS. In the presence of a competitor, the concentration of free ligand increases. […] FIG. 8 illustrates tubulin competition assay. Each graph depicts the amount of unbound compound detected in the presence of varying concentrations of competitors. Known competitors were used as positive controls: podophyllotoxin for the colchicine site (left), vinblastine for the vincristine site (center), and docetaxel for the paclitaxel site (right). Amounts of free compound are expressed as percentages normalized to the amount of free compound detected in the presence of 100 μM known competitor.

[8] = tested on: paclitaxel binding site of tubulin; assay: Ultrafiltration-based tubulin competition assay; settings: free ligand by LC/MS
Excerpt: as §1

[9] = Mouse plasma concentration after IP injection; assay type: in vivo, mice
Description: The bioavailabilities of certain compounds were examined in mice. Administration of the compounds was performed by intraperitoneal (IP) injection using a vehicle as known to those skilled in the art. To measure compound concentrations in plasma, blood is collected by cardiac puncture at a specified time after dosing. It is then centrifuged in a plasma separator tube with NaEDTA/NaF as the anticoagulant, and the resulting plasma is stored at −80° C. For analysis, an internal standard is added to a 200 μL aliquot of plasma, and the aliquot is extracted with ethyl acetate. The ethyl acetate extract is analyzed by LC/MS and quantitated using a standard curve prepared by adding known amounts of test compound and internal standard to 200 μL aliquots of blank mouse plasma.
Many vehicles can be used to examine bioavailability. Prior to administration, each vehicle was optimized based on compound solubility according to the formulation research conducted by Uckun et at (Uckun, F. M., Tibbles, H., Erbeck, D., Venkatachalam, T. K., Qazi, S., 2007). In vivo pharmacokinetics and toxicity of a novel hydrophilic oral formulation of the potent non-nucleoside reverse transcriptase inhibitor compound N′-[2-(2-thiophene)ethyl]-N′-[2-(5-bromopyridyl)]-thiourea (HI-443). Arzneimittelforschung 57, 218-226.). […] The concentration of PEG400 is modulated depending upon solubility of the compounds and the amount of water phase added.
With larger injections (75-100 mg/kg), plasma concentrations were >4 times the IC50 at 6 h.

[10] = Epimerization by TFA in HPLC solvents; assay type: physicochemical; settings: TFA (0.05%) in HPLC solvents
Description: To obtain additional bifidenone for antiproliferation assays, the remaining material from the Beilschmiedia specimen was fractionated. […] Consequently, future isolations were performed without TFA in the semipreparative steps. Ultimately, 79 μg of bifidenone was isolated.

C=CC[C@H]1C[C@]2([C@@H](C)Cc3ccc(OC)c(OC)c3)OCOC2=CC1=O [bifidenone, (6S,7aR)-6-Allyl-7a-((S)-1-(3,4-dimethoxyphenyl)propan-2-yl)-7,7a-dihydrobenzo[d][1,3]dioxol-5(6H)-one]
IC50 ([1]; NCI-H460, 72 h, read-out: IC50 against NCI-H460): 360 nM | IC50 ([1]; NCI-H460, as restated in Example VII, read-out: IC50 against NCI-H460 human lung cancer cells): 360 nM | inhibition of tubulin polymerization [2]: inhibits tubulin polymerization in a dose-dependent manner | cell cycle effect [3]: causes arrest in the G2/M phase of the cell cycle | protein expression and phosphorylation patterns (Histone H3 Ser10, Myt1, Aurora A/B/C, cdc2 Tyr15) [4]: consistent with G2/M arrest | apoptosis by enzymatic activity of caspases 3 and 7 [5]: undergo apoptosis | cleavage of caspase-7 and PARP [6]: cleavage of caspase-7 and PARP occurred | competition for the colchicine binding site [7]: competes for the colchicine binding site | competition for the paclitaxel binding site [8]: weakly for the paclitaxel binding site | change of plasma concentration with vehicle ([9]; initial formulation diluted with up to 20% water): not diminished | concentration at 1 h ([9]; mouse, plasma, 1 h post-injection, 40 mg/kg IP, vehicle 40% propylene glycol, 20% TWEEN-20, 20% PEG400, 20% ethanol): > 360 nM | change of plasma levels with vehicle ([9]; propylene glycol decreased to 25%): diminished | change of plasma levels with vehicle ([9]; propylene glycol increased to 45% and TWEEN-20 decreased to <3%): increased or were not diminished | stability to TFA [10]: prone to epimerization
